# Target: T1, KRas G12C (Homo sapiens, UniProt P01116, G12C)
# T1 construct: NCI-H358 cells (ATCC CRL-5807) express KRas G12C
# Assay: Inhibition of KRas G12C-dependent cell growth: Phospho-ERK in NCI-H358 cells
# Assay type: cell-based
# Conditions: NCI-H358 cells expressing KRas G12C; Phospho-ERK (Thr202/Tyr204) normalized to GAPDH; 3 hours compound; 4 parameter fit
# How it was run: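 NCI-H358 cells (KRas G12C) exposed to compounds for 3 h, 0.5% DMSO final. Fixed cells immunostained for pERK(Thr202/Tyr204) and GAPDH with infrared secondary antibodies. pERK normalized to GAPDH, expressed as percent of DMSO control; IC50 from 4-parameter dose-response fit.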
# T1 sequence (P01116 1-188 isoform P01116-2 G12C): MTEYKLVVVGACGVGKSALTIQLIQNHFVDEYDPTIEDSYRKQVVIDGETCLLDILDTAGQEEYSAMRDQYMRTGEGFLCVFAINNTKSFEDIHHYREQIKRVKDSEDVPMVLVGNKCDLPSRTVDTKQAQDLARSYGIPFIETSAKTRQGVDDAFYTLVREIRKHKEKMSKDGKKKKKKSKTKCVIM
row,SMILES,IC50
1,"C=CC(=O)N1CCC12CN(c1ncnc3c(F)c(-c4cccc5ccc(F)c(Cl)c45)ncc13)C2 [Example 246, 1-(6-(7-(8-chloro-7-fluoronaphthalen-1-yl)-8-fluoropyrido[4,3-d]pyrimidin-4-yl)-1,6-diazaspiro[3.3]heptan-1-yl)prop-2-en-1-one]",6470 nM
2,C=CC(=O)N1C[C@@H]2[C@H]1CCN2c1nc(C)nc2c(F)c(-c3cccc4ccc(F)c(Cl)c34)ncc12 [Example 231],4280 nM
3,C=CC(=O)N1CC[C@@H]2[C@H]1CN2c1ncnc2c(F)c(-c3cccc4cccc(Cl)c34)ncc12 [Example 284],557 nM
4,C=C(F)C(=O)N1CCN(c2nc(NC3CCN(C4CC4)CC3)nc3c(F)c(-c4cccc5cccc(Cl)c45)ncc23)C[C@@H]1CC#N [Example 97],2520 nM
5,C=CC(=O)N1CCN(c2ncnc3c(F)c(-c4cc(O)cc5cccc(Cl)c45)ncc23)CC1 [Example 178],63 nM
6,C=C(F)C(=O)N1CCN(c2nc(OCCN(C)C)nc3c(F)c(-c4cccc5cccc(Cl)c45)ncc23)C[C@@H]1CC#N [Example 68],86 nM
7,C=CC(=O)N1CC[C@@H]2[C@H]1CN2c1nc(N(CC)CC)nc2c(F)c(-c3cccc4ccc(F)c(Cl)c34)ncc12 [Example 275],10000 nM
8,C=C(F)C(=O)N1CCN(c2nc(OC[C@@H]3CCCN3C)nc3c(F)c(-c4cccc5ccc(Cl)c(Cl)c45)ncc23)C[C@@H]1CC#N [Example 147],23 nM
9,C=CC(=O)N1CC[C@@H]2[C@H]1CN2c1nc(OC2CC2)nc2c(F)c(-c3cccc4ccc(F)c(Cl)c34)ncc12 [Example 272],1470 nM
10,C=C(F)C(=O)N1CCN(c2nc(OC[C@@H]3CCCN3CC)nc3c(F)c(-c4cccc5ccc(F)c(Cl)c45)ncc23)C[C@@H]1CC#N [Example 128],15 nM
11,C=C(F)C(=O)N1CCN(c2nc(OC[C@@H]3CCN3CC)nc3c(F)c(-c4cccc5ccc(F)c(Cl)c45)ncc23)C[C@@H]1CC#N [Example 173],31 nM
12,C=CC(=O)N1CCN(c2nc(C(F)F)nc3c(F)c(-c4cccc5ccc(F)c(Cl)c45)ncc23)C[C@@H]1CC#N [Example 237],230 nM
13,C=C(F)C(=O)N1CCN(c2nc(OCC3CCN3CC)nc3c(F)c(-c4cccc5ccc(F)c(Cl)c45)ncc23)C[C@@H]1CC#N (stereo partly shown) [Example 139],37 nM
14,C=C(F)C(=O)N1CCN(c2nc(O[C@H](C)CN(C)C)nc3c(F)c(-c4cccc5cccc(Cl)c45)ncc23)C[C@@H]1CC#N [Example 73],593 nM
15,C=CC(=O)N1CCN(c2ncnc3c(F)c(-c4c(Cl)c(C)cc5[nH]ncc45)ncc23)C[C@@H]1CC#N [Example 242],187 nM
16,"Cc1cccc2cncc(-c3ncc4c(N5CCN(C(=O)/C=C/CF)[C@@H](CC#N)C5)nc(OC[C@@H]5CC(F)(F)CN5C)nc4c3F)c12 [Example 55, 2-((S)-4-(2-(((S)-4,4-difluoro-1-methylpyrrolidin-2-yl)methoxy)-8-fluoro-7-(5-methylisoquinolin-4-yl)pyrido[4,3-d]pyrimidin-4-yl)-1-((E)-4-fluorobut-2-enoyl)piperazin-2-yl)acetonitrile]",90 nM
17,C=C(F)C(=O)N1CCN(c2nc(N3CC(N(C)C)C3)nc3c(F)c(-c4cccc5ccc(F)c(Cl)c45)ncc23)C[C@@H]1CC#N [Example 170],19 nM
18,C=CC(=O)N1CCN(c2ncnc3c(F)c(-c4ccccc4C4CC4)ncc23)CC1 [Example 224],10000 nM
19,"C=C(F)C(=O)N1CCN(c2nc(OCC3CN(C)CC3(F)F)nc3c(F)c(-c4cccc5ccc(F)c(Cl)c45)ncc23)C[C@@H]1CC#N (single isomer, unassigned) [Example 179]",224 nM
20,C=CC(=O)N1CCN(c2nc(C)nc3c(F)c(-c4cccc5cccc(Cl)c45)ncc23)CC1 [Example 153],10000 nM
21,C=C(F)C(=O)N1CCN(c2nc(OC[C@@H]3C[C@@H](F)CN3C(C)C)nc3c(F)c(-c4cccc5ccc(F)c(Cl)c45)ncc23)C[C@@H]1CC#N [Example 116],31 nM
22,C=C(F)C(=O)N1CCN(c2nc(OCC34CCCN3C[C@H](F)C4)nc3c(F)c(-c4cccc5ccc(F)c(Cl)c45)ncc23)C[C@@H]1CC#N (stereo partly shown) [Example 181],4 nM
23,"Cc1cccc2cncc(-c3ncc4c(N5CCN(C(=O)/C=C/CF)[C@@H](CC#N)C5)nc(OCCCN5C[C@@H]6C[C@H]5CO6)nc4c3F)c12 [Example 39, 2-[(2S)-1-[(E)-4-fluorobut-2-enoyl]-4-[8-fluoro-7-(5-methyl-4-isoquinolyl)-2-[3-[(1S,4S)-2-oxa-5-azabicyclo[2.2.1]heptan-5-yl]propoxy]pyrido[4,3-d]pyrimidin-4-yl]piperazin-2-yl]acetonitrile]",544 nM
24,"C=CC(=O)N1CCN(c2nc(OC[C@@H]3CCCN3C)nc3c(F)c(-c4cncc5cccc(Cl)c45)ncc23)C[C@@H]1CC#N [Example 20, 2-[(2S)-4-[7-(5-chloro-4-isoquinolyl)-8-fluoro-2-[[(2S)-1-methylpyrrolidin-2-yl]methoxy]pyrido[4,3-d]pyrimidin-4-yl]-1-prop-2-enoyl-piperazin-2-yl]acetonitrile]",3 nM
25,O=C(/C=C/CF)N1CC[C@@H]2[C@H]1CN2c1ncnc2c(F)c(-c3cccc4ccc(F)c(Cl)c34)ncc12 [Example 221],1930 nM

# From US11548888B2, “KRas G12C inhibitors” (Mirati Therapeutics, Inc., priority 2019, dated 2023)
